In patent US10287305B2, “Substituted piperidine compound and use thereof” (Takeda Pharmaceutical Company Limited, priority 2016, dated 2019):

Biological target: human orexin type 2 receptor (hOX2R) (Homo sapiens (Human), UniProt O43614)
Experiment: Measurement of orexin type 2 receptor agonist activity (Experimental Example 2-1, FLIPR TETRA, intracellular Ca2+)
Type: cell-based
Details: CHO dhfr- cells expressing hOX2R, FLIPR TETRA, Fluo-4AM; for Emax: read-out: Emax (%)

Chain of human orexin type 2 receptor (hOX2R) (O43614 whole entry): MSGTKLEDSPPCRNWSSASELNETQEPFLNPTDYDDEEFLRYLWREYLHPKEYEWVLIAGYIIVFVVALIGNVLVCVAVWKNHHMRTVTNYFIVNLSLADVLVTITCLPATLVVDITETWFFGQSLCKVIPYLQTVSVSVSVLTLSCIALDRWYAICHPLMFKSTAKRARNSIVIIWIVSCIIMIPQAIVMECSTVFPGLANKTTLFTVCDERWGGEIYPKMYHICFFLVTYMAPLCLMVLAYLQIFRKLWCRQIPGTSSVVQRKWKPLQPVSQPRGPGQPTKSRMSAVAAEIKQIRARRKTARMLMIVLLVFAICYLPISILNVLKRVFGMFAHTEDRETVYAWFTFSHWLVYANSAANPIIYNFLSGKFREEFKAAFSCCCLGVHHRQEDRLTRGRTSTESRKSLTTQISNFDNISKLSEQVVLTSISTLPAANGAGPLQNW

SMILES	EC50 [nM]	Emax [%]
CC(=O)N1CCC[C@H](NS(C)(=O)=O)[C@@H]1COC1CCC(F)(c2cccc(F)c2)CC1 (relative stereo) [Example 216, N-(cis-1-acetyl-2-(((4-fluoro-4-(3-fluorophenyl)cyclohexyl)oxy)methyl)piperidin-3-yl)methanesulfonamide]	210	105
CC(C)C(=O)N1CCC[C@H](NS(C)(=O)=O)[C@@H]1COC1CCN(c2ccccc2F)CC1 (relative stereo) [Example 224, N-(cis-2-(((1-(2-fluorophenyl)piperidin-4-yl)oxy)methyl)-1-isobutyrylpiperidin-3-yl)methanesulfonamide]	1700	90
CS(=O)(=O)N[C@H]1CCCN(C(=O)C2CC2(F)F)[C@H]1COC1CCN(c2ccccc2F)CC1 (relative stereo) [Example 225, N-(cis-1-((2,2-difluorocyclopropyl)carbonyl)-2-(((1-(2-fluorophenyl)piperidin-4-yl)oxy)methyl)piperidin-3-yl)methanesulfonamide]	1000	98
CCCC(=O)N1CCC[C@H](NS(C)(=O)=O)[C@@H]1COC1CCN(c2ccccc2F)CC1 (relative stereo) [Example 227, N-(cis-1-butyryl-2-(((1-(2-fluorophenyl)piperidin-4-yl)oxy)methyl)piperidin-3-yl)methanesulfonamide]	2400	102
CCOC(=O)N1CCC[C@H](NS(C)(=O)=O)[C@@H]1COC1CCN(c2ccccc2F)CC1 (relative stereo) [Example 228, ethyl cis-2-(((1-(2-fluorophenyl)piperidin-4-yl)oxy)methyl)-3-((methylsulfonyl)amino)piperidine-1-carboxylate]	2100	89
CC(C)CC(=O)N1CCC[C@H](NS(C)(=O)=O)[C@@H]1COC1CCN(c2ccccc2F)CC1 (relative stereo) [Example 230, N-(cis-2-(((1-(2-fluorophenyl)piperidin-4-yl)oxy)methyl)-1-(3-methylbutanoyl)piperidin-3-yl)methanesulfonamide]	2600	80
CC(C)OC(=O)N1CCC[C@H](NS(C)(=O)=O)[C@@H]1COC1CCN(c2ccccc2F)CC1 (relative stereo) [Example 237, isopropyl cis-2-(((1-(2-fluorophenyl)piperidin-4-yl)oxy)methyl)-3-((methylsulfonyl)amino)piperidine-1-carboxylate]	490	90
CCNC(=O)N1CCC[C@H](NS(C)(=O)=O)[C@@H]1CO[C@H]1CC[C@@H](c2ccccc2C(F)(F)F)CC1 (relative stereo) [Example 249, cis-N-ethyl-3-((methylsulfonyl)amino)-2-(((cis-4-(2-(trifluoromethyl)phenyl)cyclohexyl)oxy)methyl)piperidine-1-carboxamide]	0.61	99
CS(=O)(=O)N[C@H]1CCCN(C(=O)C2CC2)[C@H]1COC1CCC(c2ccccn2)CC1 (relative stereo) [Example 251, N-(cis-1-(cyclopropylcarbonyl)-2-(((4-(pyridin-2-yl)cyclohexyl)oxy)methyl)piperidin-3-yl)methanesulfonamide]	240	98
CC(=O)N1CCC[C@H](NS(C)(=O)=O)[C@@H]1CO[C@H]1CC[C@@H](c2cccc(C#N)c2)CC1 (relative stereo) [Example 252, N-(cis-1-acetyl-2-(((cis-4-(3-cyanophenyl)cyclohexyl)oxy)methyl)piperidin-3-yl)methanesulfonamide]	2900	93
CCNC(=O)N1CCC[C@H](NS(C)(=O)=O)[C@@H]1CO[C@H]1CC[C@@H](c2cccc(C#N)c2)CC1 (relative stereo) [Example 254, cis-2-(((cis-4-(3-cyanophenyl)cyclohexyl)oxy)methyl)-N-ethyl-3-((methylsulfonyl)amino)piperidine-1-carboxamide]	88	105
CC(C)OC(=O)N1CCC[C@H](NS(C)(=O)=O)[C@@H]1COC1CCN(c2ncccn2)CC1 (relative stereo) [Example 255, isopropyl cis-3-((methylsulfonyl)amino)-2-(((1-(pyrimidin-2-yl)piperidin-4-yl)oxy)methyl)piperidine-1-carboxylate]	8.1	102
CS(=O)(=O)N[C@H]1CCCN[C@H]1CO[C@H]1CC[C@@H](c2ccccc2C#N)CC1 (relative stereo) [Example 262, N-(cis-2-(((cis-4-(2-cyanophenyl)cyclohexyl)oxy)methyl)piperidin-3-yl)methanesulfonamide]	2500	94
CCNC(=O)N1CCC[C@H](NS(C)(=O)=O)[C@@H]1CO[C@H]1CC[C@@H](c2ccccc2C#N)CC1 (relative stereo) [Example 263, cis-2-(((cis-4-(2-cyanophenyl)cyclohexyl)oxy)methyl)-N-ethyl-3-((methylsulfonyl)amino)piperidine-1-carboxamide]	57	88
COC(=O)N1CCC[C@H](NS(C)(=O)=O)[C@@H]1CO[C@H]1CC[C@@H](c2ccccc2C#N)CC1 (relative stereo) [Example 265, methyl cis-2-(((cis-4-(2-cyanophenyl)cyclohexyl)oxy)methyl)-3-((methylsulfonyl)amino)piperidine-1-carboxylate]	2300	94
CCNC(=O)N1CCC[C@H](NS(C)(=O)=O)[C@@H]1CO[C@H]1C[C@@H](Cc2ccccc2)C1 (relative stereo) [Example 266, cis-2-(((cis-3-benzylcyclobutyl)oxy)methyl)-N-ethyl-3-((methylsulfonyl)amino)piperidine-1-carboxamide]	3700	95
COc1cccc([C@H]2CC[C@@H](OC[C@@H]3NCCC[C@@H]3NS(C)(=O)=O)CC2)c1 (relative stereo) [Example 269, N-(cis-2-(((cis-4-(3-methoxyphenyl)cyclohexyl)oxy)methyl)piperidin-3-yl)methanesulfonamide]	3000	95
COC(=O)N1CCC[C@H](NS(C)(=O)=O)[C@@H]1CO[C@H]1CC[C@@H](c2cccc(OC)c2)CC1 (relative stereo) [Example 270, methyl cis-2-(((cis-4-(3-methoxyphenyl)cyclohexyl)oxy)methyl)-3-((methylsulfonyl)amino)piperidine-1-carboxylate]	80	102
COc1cccc([C@H]2CC[C@@H](OC[C@H]3[C@@H](NS(C)(=O)=O)CCCN3C(C)=O)CC2)c1 (relative stereo) [Example 271, N-(cis-1-acetyl-2-(((cis-4-(3-methoxyphenyl)cyclohexyl)oxy)methyl)piperidin-3-yl)methanesulfonamide]	650	104
CCS(=O)(=O)N[C@H]1CCCN(C(=O)C2CC2)[C@H]1CO[C@H]1CC[C@@H](c2ccccc2)CC1 (relative stereo) [Example 279, N-(cis-1-(cyclopropylcarbonyl)-2-(((cis-4-phenylcyclohexyl)oxy)methyl)piperidin-3-yl)ethanesulfonamide]	5.2	97

Further lines, results first:

EC50 [nM]	Emax [%]	SMILES
3000	91	CCC(=O)N1CCC[C@H](NS(C)(=O)=O)[C@@H]1COC1CCN(c2ccccc2F)CC1 (relative stereo) [Example 219, N-(cis-2-(((1-(2-fluorophenyl)piperidin-4-yl)oxy)methyl)-1-propionylpiperidin-3-yl)methanesulfonamide]
1100	110	CS(=O)(=O)N[C@H]1CCCN(C(=O)C2CCC2)[C@H]1COC1CCN(c2ccccc2F)CC1 (relative stereo) [Example 223, N-(cis-1-(cyclobutylcarbonyl)-2-(((1-(2-fluorophenyl)piperidin-4-yl)oxy)methyl)piperidin-3-yl)methanesulfonamide]
2200	86	CS(=O)(=O)N[C@H]1CCCN(C(=O)CC2CC2)[C@H]1COC1CCN(c2ccccc2F)CC1 (relative stereo) [Example 226, N-(cis-1-(cyclopropylacetyl)-2-(((1-(2-fluorophenyl)piperidin-4-yl)oxy)methyl)piperidin-3-yl)methanesulfonamide]
1500	85	CS(=O)(=O)N[C@H]1CCCN(C(=O)C2CCCC2)[C@H]1COC1CCN(c2ccccc2F)CC1 (relative stereo) [Example 229, N-(cis-1-(cyclopentylcarbonyl)-2-(((1-(2-fluorophenyl)piperidin-4-yl)oxy)methyl)piperidin-3-yl)methanesulfonamide]
5000	83	CS(=O)(=O)N[C@H]1CCCN(C(=O)C2CC(=O)C2)[C@H]1COC1CCN(c2ccccc2F)CC1 (relative stereo) [Example 233, N-(cis-2-(((1-(2-fluorophenyl)piperidin-4-yl)oxy)methyl)-1-((3-oxocyclobutyl)carbonyl)piperidin-3-yl)methanesulfonamide]
1800	86	CS(=O)(=O)N[C@H]1CCCN(C(=O)C2CCCCC2)[C@H]1COC1CCN(c2ccccc2F)CC1 (relative stereo) [Example 236, N-(cis-1-(cyclohexylcarbonyl)-2-(((1-(2-fluorophenyl)piperidin-4-yl)oxy)methyl)piperidin-3-yl)methanesulfonamide]
2100	91	CS(=O)(=O)N[C@H]1CCCN(C(=O)C2CCC(F)(F)CC2)[C@H]1COC1CCN(c2ccccc2F)CC1 (relative stereo) [Example 238, N-(cis-1-((4,4-difluorocyclohexyl)carbonyl)-2-(((1-(2-fluorophenyl)piperidin-4-yl)oxy)methyl)piperidin-3-yl)methanesulfonamide]
960	102	CS(=O)(=O)N[C@H]1CCCN(C(=O)C2CC2)[C@H]1COC1CCN(c2ccccc2)CC1 (relative stereo) [Example 247, N-(cis-1-(cyclopropylcarbonyl)-2-(((1-phenylpiperidin-4-yl)oxy)methyl)piperidin-3-yl)methanesulfonamide]
